Experimental data taken from US9253983B2, “Triazole compound and use thereof” (KUREHA CORPORATION, priority 2011, dated 2016).

How the values were obtained:
Rhizopus oryzae = experiment: Test 1 for antifungal effect, plate medium: R.o; format: cell-based; details: PDA plate medium
Description: (§1) Compound (1-1a) or Compound (1-2a) was dissolved in dimethyl sulfoxide, and the resulting solution was added to a PDA medium (potato dextrose-agar medium) at about 60° C. The medium and the solution were mixed thoroughly in a conical flask, poured into a petri dish, and allowed to solidify. In this way, a plate medium containing Compound (1-1a) or Compound (1-2a) at a certain concentration was prepared.
(§2) Meanwhile, test microorganisms cultured on a plate medium in advance were cut out with the use of a cork borer 4 mm in diameter, and were inoculated onto the compound-containing plate medium. After the inoculation, the microorganisms were cultured at their optimum growth temperatures (for example, refer to LIST OF CULTURES 1996 microorganisms 10th edition, Institute for Fermentation (foundation)) for 1 day to 7 days, and their growth was determined by measuring the diameter of their flora. The extent of growth of the microorganisms on the compound-containing plate medium was compared with that of microorganisms on a plate medium where no compound was added, and mycelial growth inhibition rate was calculated by the following equation: R=100(dc−dt)/dc where R is mycelial growth inhibition rate (%), dc is the flora diameter in untreated plate, and dt is the flora diameter in plate treated with the compound.
(§3) A larger antifungal index indicates a better antifungal effect.

Ustilago nuda = experiment: Test 2 for antifungal effect, plate medium: U.n; format: cell-based; details: PDA plate medium
Description: as §1, with “(1-1b)” for “(1-1a)”, “(1-2b)” for “(1-2a)”
(§4) Meanwhile, test microorganisms cultured on a plate medium in advance were cut out with the use of a cork borer 4 mm in diameter, and were inoculated onto the compound-containing plate medium. After the inoculation, the pathogens were cultured at their optimum growth temperatures (for example, refer to LIST OF CULTURES 1996 microorganisms 10th edition, Institute for Fermentation (foundation)) for 1 day to 7 days, and their growth was determined by measuring the diameter of their flora. The extent of growth of the pathogens on the compound-containing plate medium was compared with that of pathogens on a plate medium where no compound was added, and mycelial growth inhibition rate was calculated as in Experiment Example 10. Note that, in Experiment Example 11, controls used in the antifungal effect tests are Compound (1-1a) and Compound (1-2a) instead of Compound (1-1b) and Compound (1-2b), respectively.
(§5) The results were rated on a 1-to-5 scale as in Experiment Example 10.

Sclerotinia sclerotiorum = experiment: Test 1 for antifungal effect, plate medium: S.s; format: cell-based; details: PDA plate medium
Description: as §1, §2, §3

Pyrenophora graminea = experiment: Test 2 for antifungal effect, plate medium: P.g; format: cell-based; details: PDA plate medium
Description: as §1, with “(1-1b)” for “(1-1a)”, “(1-2b)” for “(1-2a)”
as §4, §5

Botrytis cinerea = experiment: Controlling effect on cucumber gray mold by foliage spray treatment (Tests 1 and 2); format: in vivo; details: four days after inoculation
Description: The cucumber plants had been grown in square plastic pots (6 cm×6 cm). After the suspension was then left to dry, paper discs (8 mm in diameter) impregnated with a spore suspension of Botrytis cinerea w ere placed on the leaves, and the plants were kept at 20° C. in a high humidity environment. Four days after inoculation, the lesion degree of the cucumber gray mold was examined in accordance with the criteria shown in Table 1, and the protective values were calculated by the following equation: Protective value (%)=(1−Average lesion degree in sprayed plot/Average lesion degree in unsprayed plot)×100.
The cucumber plants had been grown in square plastic pots (6 cm×6 cm). After the leaves were air-dried, paper discs (8 mm in diameter) impregnated with a spore suspension of cucumber graymold-causing microorganisms were placed on the leaves, and the plants were kept at 20° C. in a high humidity environment. 4 days after the inoculation, the lesion degree of the cucumber gray mold was examined, and the protective values were calculated as were in Experiment Example 1.

Septoria tritici = experiment: Test 2 for antifungal effect, plate medium: S.t; format: cell-based; details: PDA plate medium
Description: as §1, with “(1-1b)” for “(1-1a)”, “(1-2b)” for “(1-2a)”
as §4, §5

Microdochium nivale = experiment: Test 1 for antifungal effect, plate medium: M.n; format: cell-based; details: PDA plate medium
Description: as §1, §2, §3

Gibberella fujikuroi = experiment: Test 1 for antifungal effect, plate medium: G.f; format: cell-based; details: PDA plate medium
Description: as §1, §2, §3

Penicillium italicum = experiment: Test 2 for antifungal effect, plate medium: P.i; format: cell-based; details: PDA plate medium
Description: as §1, with “(1-1b)” for “(1-1a)”, “(1-2b)” for “(1-2a)”
as §4, §5

Puccinia recondita = experiment: Efficacy of seed treatment on wheat brown rust; format: in vivo; details: wheat seed treatment 20 g ai/100 kg seeds, 12 days after inoculation
Description: A pot experiment was performed to evaluate the efficacy of seed treatment in controlling wheat leaf rust. Compound (1-1a) and Compound (1-2a), each of which was dissolved in DMSO to make up such a concentration that the seeds would be treated in treatment amount of 20 g ai/100 kg seeds, were each applied to wheat seeds in a vial, and thereafter 8 wheat seeds were sowed on an 80-cm^2 pot. The pot was kept in a greenhouse with water supplied to its bottom. 21 days after the sowing, the wheat seeds were inoculated with Puccinia recondita, and kept in a wet box for 2 days. After that, the pot was again kept in the greenhouse with water supplied to its bottom. 12 days after the inoculation, the percentage of affected area was found, and the protective value was calculated by the following equation. Protective value (%)=(1−(Percentage of affected area in treated region/Percentage of affected area in untreated region))×100

CC1(CCl)CCC(Cc2ccc(F)cc2)C1(O)Cn1cncn1 (single isomer, unassigned) [Compound (1-2a), (1,2-cis, 1,5-cis)-5-(4-fluorobenzyl)-2-chloromethyl-2-methyl-1-(1H-1,2,4-triazole-1-ylmethyl)cyclopentanol]
Antifungal index (mycelial growth inhibition rate) (Rhizopus oryzae; 0.16 mg/L): 1 (Less than 60%)
Antifungal index (mycelial growth inhibition rate) (Rhizopus oryzae; 0.31 mg/L): 1 (Less than 60%)
Antifungal index (mycelial growth inhibition rate) (Rhizopus oryzae; 0.63 mg/L): 3 (Less than 80% but not less than 70%)
Antifungal index (mycelial growth inhibition rate) (Rhizopus oryzae; 1.25 mg/L): 5 (90% or greater)
Antifungal index (mycelial growth inhibition rate) (Rhizopus oryzae; 2.50 mg/L): 5 (90% or greater)
Antifungal index (mycelial growth inhibition rate) (Ustilago nuda; 0.04 mg/L): 1 (Less than 60%)
Antifungal index (mycelial growth inhibition rate) (Ustilago nuda; 0.08 mg/L): 1 (Less than 60%)
Antifungal index (mycelial growth inhibition rate) (Ustilago nuda; 0.16 mg/L): 1 (Less than 60%)
Antifungal index (mycelial growth inhibition rate) (Ustilago nuda; 0.31 mg/L): 1 (Less than 60%)
Antifungal index (mycelial growth inhibition rate) (Ustilago nuda; 0.63 mg/L): 1 (Less than 60%)
Antifungal index (mycelial growth inhibition rate) (Ustilago nuda; 1.25 mg/L): 2 (Less than 70% but not less than 60%)
Antifungal index (mycelial growth inhibition rate) (Sclerotinia sclerotiorum; 0.16 mg/L): 5 (90% or greater)
Antifungal index (mycelial growth inhibition rate) (Sclerotinia sclerotiorum; 0.31 mg/L): 5 (90% or greater)
Antifungal index (mycelial growth inhibition rate) (Sclerotinia sclerotiorum; 0.63 mg/L): 5 (90% or greater)
Antifungal index (mycelial growth inhibition rate) (Sclerotinia sclerotiorum; 1.25 mg/L): 5 (90% or greater)
Antifungal index (mycelial growth inhibition rate) (Sclerotinia sclerotiorum; 2.50 mg/L): 5 (90% or greater)
Antifungal index (mycelial growth inhibition rate) (Pyrenophora graminea; 0.04 mg/L): 1 (Less than 60%)
Antifungal index (mycelial growth inhibition rate) (Pyrenophora graminea; 0.08 mg/L): 2 (Less than 70% but not less than 60%)
Antifungal index (mycelial growth inhibition rate) (Pyrenophora graminea; 0.16 mg/L): 4 (Less than 90% but not less than 80%)
Antifungal index (mycelial growth inhibition rate) (Pyrenophora graminea; 0.31 mg/L): 5 (90% or greater)
Antifungal index (mycelial growth inhibition rate) (Pyrenophora graminea; 0.63 mg/L): 5 (90% or greater)
Antifungal index (mycelial growth inhibition rate) (Pyrenophora graminea; 1.25 mg/L): 5 (90% or greater)
Protective value (%) (Botrytis cinerea; foliage spray 3.1 mg/L, 1,000 L/ha): 40%
Protective value (%) (Botrytis cinerea; foliage spray 12.5 mg/L, 1,000 L/ha): 100%
Antifungal index (mycelial growth inhibition rate) (Septoria tritici; 0.04 mg/L): 1 (Less than 60%)
Antifungal index (mycelial growth inhibition rate) (Septoria tritici; 0.08 mg/L): 1 (Less than 60%)
Antifungal index (mycelial growth inhibition rate) (Septoria tritici; 0.16 mg/L): 1 (Less than 60%)
Antifungal index (mycelial growth inhibition rate) (Septoria tritici; 0.31 mg/L): 1 (Less than 60%)
Antifungal index (mycelial growth inhibition rate) (Septoria tritici; 0.63 mg/L): 1 (Less than 60%)
Antifungal index (mycelial growth inhibition rate) (Septoria tritici; 1.25 mg/L): 3 (Less than 80% but not less than 70%)
Antifungal index (mycelial growth inhibition rate) (Microdochium nivale; 0.16 mg/L): 1 (Less than 60%)
Antifungal index (mycelial growth inhibition rate) (Microdochium nivale; 0.31 mg/L): 1 (Less than 60%)
Antifungal index (mycelial growth inhibition rate) (Microdochium nivale; 0.63 mg/L): 2 (Less than 70% but not less than 60%)
Antifungal index (mycelial growth inhibition rate) (Microdochium nivale; 1.25 mg/L): 3 (Less than 80% but not less than 70%)
Antifungal index (mycelial growth inhibition rate) (Microdochium nivale; 2.50 mg/L): 5 (90% or greater)
Antifungal index (mycelial growth inhibition rate) (Gibberella fujikuroi; 0.16 mg/L): 4 (Less than 90% but not less than 80%)
Antifungal index (mycelial growth inhibition rate) (Gibberella fujikuroi; 0.31 mg/L): 5 (90% or greater)
Antifungal index (mycelial growth inhibition rate) (Gibberella fujikuroi; 0.63 mg/L): 5 (90% or greater)
Antifungal index (mycelial growth inhibition rate) (Gibberella fujikuroi; 1.25 mg/L): 5 (90% or greater)
Antifungal index (mycelial growth inhibition rate) (Gibberella fujikuroi; 2.50 mg/L): 5 (90% or greater)
Antifungal index (mycelial growth inhibition rate) (Penicillium italicum; 0.04 mg/L): 1 (Less than 60%)
Antifungal index (mycelial growth inhibition rate) (Penicillium italicum; 0.08 mg/L): 1 (Less than 60%)
Antifungal index (mycelial growth inhibition rate) (Penicillium italicum; 0.16 mg/L): 3 (Less than 80% but not less than 70%)
Antifungal index (mycelial growth inhibition rate) (Penicillium italicum; 0.31 mg/L): 4 (Less than 90% but not less than 80%)
Antifungal index (mycelial growth inhibition rate) (Penicillium italicum; 0.63 mg/L): 5 (90% or greater)
Antifungal index (mycelial growth inhibition rate) (Penicillium italicum; 1.25 mg/L): 5 (90% or greater)
Protective value (%) (Puccinia recondita): 100%
